Columns and labels:
Test in all cases: relative viability (nuclei count vs DMSO), 5 days (fraction); higher = more cells survive
[1] = compound: CC1(C)CCC(CN2CCN(c3ccc(C(=O)NS(=O)(=O)c4ccc(NCC5CCOCC5)c([N+](=O)[O-])c4)c(Oc4cnc5[nH]ccc5c4)c3)CC2)=C(c2ccc(Cl)cc2)C1 [Venetoclax]
Procedure, shortened: (§1)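 Following overnight incubation at 37 °C, lung cancer cell lines in 1536-well plates were pinned with five library-drug doses (not always all listed) in √10 steps on vehicle-anchored plates. The cells then spent 5 days without medium change before a combined fix, permeabilisation and Hoechst stain, 4× imaging and MetaXpress nuclear counts. Viability is the treated-to-vehicle ratio of nuclei, taken as the median across plates. Only plates with control CV below 25% and at least one doubling passed.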

[2] = compound: Cn1cnc2c(F)c(Nc3ccc(Br)cc3Cl)c(C(=O)NOCCO)cc21 [Selumetinib]
Procedure, shortened: as §1

[3] = compound: CC1(C)CCC(CN2CCN(c3ccc(C(=O)NS(=O)(=O)c4ccc(NCC5CCOCC5)c([N+](=O)[O-])c4)c(Oc4cnc5[nH]ccc5c4)c3)CC2)=C(c2ccc(Cl)cc2)C1 [Venetoclax] + CC1(C)CCC(c2ccc(Cl)cc2)=C(CN2CCN(c3ccc(C(=O)NS(=O)(=O)c4ccc(N[C@H](CCN5CCOCC5)CSc5ccccc5)c(S(=O)(=O)C(F)(F)F)c4)cc3)CC2)C1 [Navitoclax] (partner 0.5 µM)
Procedure, shortened: (§2)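 Dosing by pin tool came one day after lung cancer cell lines were seeded in 1536-well plates, using either one drug or a fixed anchor-drug dose plus five library-drug doses (not always all listed) in √10 steps. After 5 days, nuclei were counted on 4× images. Relative viability is treated-well nuclei count divided by vehicle-well nuclei count, and values are medians of duplicate plates.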

[4] = compound: CC1(C)CCC(CN2CCN(c3ccc(C(=O)NS(=O)(=O)c4ccc(NCC5CCOCC5)c([N+](=O)[O-])c4)c(Oc4cnc5[nH]ccc5c4)c3)CC2)=C(c2ccc(Cl)cc2)C1 [Venetoclax] + COc1cc2c(Oc3ccc(NC(=O)C4(C(=O)Nc5ccc(F)cc5)CC4)cc3F)ccnc2cc1OCCCN1CCOCC1 [Foretinib] (partner 0.25 µM)
Procedure, shortened: as §2

Cell Line	relative viability ([1]; 0.01 µM)	relative viability ([1]; 0.03162 µM)	relative viability ([1]; 0.1 µM)	relative viability ([1]; 0.3162 µM)	relative viability ([1]; 1 µM)	relative viability ([2]; 0.02 µM)	relative viability ([2]; 0.06325 µM)	relative viability ([2]; 0.2 µM)	relative viability ([2]; 0.6325 µM)	relative viability ([3]; first compound 0.01 µM)	relative viability ([3]; first compound 0.03162 µM)	relative viability ([3]; first compound 0.1 µM)	relative viability ([3]; first compound 0.3162 µM)	relative viability ([3]; first compound 1 µM)	relative viability ([4]; first compound 0.01 µM)	relative viability ([4]; first compound 0.03162 µM)	relative viability ([4]; first compound 0.1 µM)	relative viability ([4]; first compound 0.3162 µM)	relative viability ([4]; first compound 1 µM)
NCI-H1666	0.915	1.02	0.966	0.933	1.01	0.917	0.94	0.878	0.875	0.616	0.986	0.978	0.971	0.901	0.889	0.946	0.904	0.915	0.943
NCI-H1395	1.01	0.99	0.769	1.11	0.922	0.984	0.85	0.892	0.845	1.15	1.12	1.16	1.13	1.55	1.06	1.01	1.04	1.07	0.996
LCLC-97TM1	0.901	1.16	0.815	0.962	0.853	0.94	0.846	0.735	0.413	–	0.608	0.44	0.361	0.446	0.913	1.03	0.918	0.981	0.782
NCI-H1299	1.02	1.03	1.01	1.01	0.949	1.04	1.03	1.02	0.889	1.07	1.04	1.01	1.01	1	1.07	1.11	1.1	1.07	1.03
HCC-827	1.03	1.07	0.924	1.02	1.04	1.03	1.06	0.994	0.941	1.02	0.996	1.04	1.04	1.01	0.966	1.03	0.971	0.98	0.916
NCI-H1651	1.05	1.02	0.971	0.926	0.904	1.03	0.913	0.93	0.963	1.06	0.964	0.964	1.06	1.09	0.876	0.787	0.834	0.823	0.808
HCC-366	0.995	1.03	0.986	1.02	0.939	0.967	0.992	0.842	0.851	1.04	1	1.01	0.987	0.993	0.86	1.04	0.872	0.963	0.974
EKVX	0.998	1	0.913	0.975	0.937	0.784	0.775	0.645	0.565	0.985	0.995	0.917	0.891	0.854	0.657	1.24	0.332	0.795	0.788
NCI-H2228	0.942	1.03	0.86	0.891	0.965	0.898	0.958	0.943	0.797	0.932	1.03	0.927	0.836	0.999	0.788	0.906	0.851	1	0.776
LK-2	0.947	1.11	0.929	0.938	1.02	1.08	1.05	0.88	1.04	0.809	0.945	0.763	0.816	0.845	1.15	1.34	1.27	1.18	0.891
NCI-H1650	0.903	1.02	0.815	1.05	0.768	0.857	0.796	0.837	0.795	1.14	1.3	–	1.02	0.968	1.12	1.11	1.13	1.2	1.07
COR-L23	0.979	1.03	0.967	0.999	0.911	1.09	1.03	1.07	0.99	0.996	1.07	0.947	0.947	0.86	0.884	1.03	1.04	0.866	0.883
PC-3 [JPC-3]	0.995	1.07	1.06	1.04	0.917	1.01	1	0.869	0.787	0.832	0.785	0.78	0.829	0.744	0.939	1.07	1.14	0.987	0.994
A549	0.984	0.99	0.994	0.969	0.937	0.864	0.669	0.656	0.449	1.29	1.25	1.23	1.17	1.08	0.896	0.871	0.989	0.912	0.883
A-427	0.892	1.14	0.901	1.08	0.998	1.1	0.994	1.03	1.05	0.874	1.1	0.967	0.988	1.01	0.957	1.2	0.944	1.24	1.11
NCI-H1975	0.99	0.935	0.889	0.939	0.884	0.952	0.958	0.939	0.663	1.15	1.15	1.05	1.21	1.11	0.936	1.02	0.89	0.942	0.929

— the supplement of paper PMC10307832
